Experimental data: ChEMBL document CHEMBL1201862, “PubChem BioAssay data set” (2004)
Activity calls are given as the source filed them.

Key:
[1] = target: Melanin-concentrating hormone receptor 1 (Homo sapiens, UniProt Q99705); experiment: Late-stage fluorescence-based counterscreen for antagonists of the G-protein coupled receptor 7 (GPR7): cell-based dose response assay to identify antagonists of the melanin-concentrating hormone receptor 1 (MCHR1) Set 6.; assay type: functional
[2] = target: SWI/SNF-related matrix-associated actin-dependent regulator of chromatin subfamily A member 2 (Homo sapiens, UniProt P51531); experiment: Luminescence-based cell-based high throughput dose response assay to identify activators of the function of SWI/SNF related, matrix associated, actin dependent regulator of chromatin, subfamily a, member 2 (SMARCA2, BRM).; assay type: functional
SWI/SNF-related matrix-associated actin-dependent regulator of chromatin subfamily A member 2, sequence (P51531 whole entry): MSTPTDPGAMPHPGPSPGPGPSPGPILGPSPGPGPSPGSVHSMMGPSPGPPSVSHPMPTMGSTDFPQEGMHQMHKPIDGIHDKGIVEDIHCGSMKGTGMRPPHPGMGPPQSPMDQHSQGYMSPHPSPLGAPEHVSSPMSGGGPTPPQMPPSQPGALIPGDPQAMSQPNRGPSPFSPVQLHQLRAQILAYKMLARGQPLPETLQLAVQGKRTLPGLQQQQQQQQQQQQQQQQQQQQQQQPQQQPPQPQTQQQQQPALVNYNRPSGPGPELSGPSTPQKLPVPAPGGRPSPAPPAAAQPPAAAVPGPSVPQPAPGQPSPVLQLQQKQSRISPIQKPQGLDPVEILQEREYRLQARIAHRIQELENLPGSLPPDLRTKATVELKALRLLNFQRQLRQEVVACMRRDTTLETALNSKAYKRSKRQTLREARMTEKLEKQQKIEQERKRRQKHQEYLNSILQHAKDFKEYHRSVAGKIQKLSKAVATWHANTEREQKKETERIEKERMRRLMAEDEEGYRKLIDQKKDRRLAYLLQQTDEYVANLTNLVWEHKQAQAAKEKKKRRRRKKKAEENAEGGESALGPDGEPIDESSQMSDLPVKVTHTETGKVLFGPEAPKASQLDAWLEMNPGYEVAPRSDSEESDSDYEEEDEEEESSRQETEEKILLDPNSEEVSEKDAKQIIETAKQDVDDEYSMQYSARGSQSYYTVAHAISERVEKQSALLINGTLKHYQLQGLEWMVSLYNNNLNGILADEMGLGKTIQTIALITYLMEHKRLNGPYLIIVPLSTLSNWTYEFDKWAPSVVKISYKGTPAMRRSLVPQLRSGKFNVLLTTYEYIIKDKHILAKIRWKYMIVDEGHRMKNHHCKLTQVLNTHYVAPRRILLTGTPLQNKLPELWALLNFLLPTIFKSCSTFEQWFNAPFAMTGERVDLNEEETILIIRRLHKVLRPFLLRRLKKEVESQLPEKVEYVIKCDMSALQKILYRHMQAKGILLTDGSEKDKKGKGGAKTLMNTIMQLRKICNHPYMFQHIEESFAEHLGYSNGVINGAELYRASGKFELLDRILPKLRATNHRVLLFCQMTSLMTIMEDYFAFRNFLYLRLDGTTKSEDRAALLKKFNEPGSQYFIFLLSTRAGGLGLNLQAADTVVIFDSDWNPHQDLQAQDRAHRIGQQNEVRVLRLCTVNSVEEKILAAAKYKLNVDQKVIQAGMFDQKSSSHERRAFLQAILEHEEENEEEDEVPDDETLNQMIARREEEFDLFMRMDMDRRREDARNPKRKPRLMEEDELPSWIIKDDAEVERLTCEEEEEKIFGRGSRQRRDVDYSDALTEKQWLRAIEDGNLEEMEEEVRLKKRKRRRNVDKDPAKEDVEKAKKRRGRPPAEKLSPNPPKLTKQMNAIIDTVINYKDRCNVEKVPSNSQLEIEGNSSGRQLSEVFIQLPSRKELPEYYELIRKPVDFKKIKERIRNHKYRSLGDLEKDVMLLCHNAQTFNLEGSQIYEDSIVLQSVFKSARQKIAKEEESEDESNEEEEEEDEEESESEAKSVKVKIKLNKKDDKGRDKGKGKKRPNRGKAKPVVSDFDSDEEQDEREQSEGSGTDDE

[3] = Counterscreen for activators of the function of SWI/SNF related, matrix associated, actin dependent regulator of chromatin, subfamily a, member 2 (SMARCA2, BRM): Luminescence-based cell-based high throughput dose response assay to identify non-selective compounds using the VP16 reporter assay.; assay type: functional
[4] = target: 26S proteasome non-ATPase regulatory subunit 14 (Homo sapiens, UniProt O00487); experiment: inhibition of proteasome subunit RPN11 – biochemical, fluorescence polarization, uHTS hits, confirmation (AID 602368); assay type: functional
26S proteasome non-ATPase regulatory subunit 14, sequence (O00487 whole entry): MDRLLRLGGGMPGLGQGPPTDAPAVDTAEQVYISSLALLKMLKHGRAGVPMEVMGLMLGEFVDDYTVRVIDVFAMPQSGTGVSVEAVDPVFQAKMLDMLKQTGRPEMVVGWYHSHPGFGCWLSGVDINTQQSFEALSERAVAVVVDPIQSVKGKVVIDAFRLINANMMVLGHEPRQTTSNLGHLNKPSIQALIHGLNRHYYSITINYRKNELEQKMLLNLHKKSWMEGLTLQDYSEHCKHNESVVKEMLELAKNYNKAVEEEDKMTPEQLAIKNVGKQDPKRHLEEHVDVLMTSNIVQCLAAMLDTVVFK

[5] = target: 72 kDa type IV collagenase (Homo sapiens, UniProt P08253); experiment: Dose Response validation of uHTS RPN11 inhibitor hits using a MMP-2 Fluorescence assay.; assay type: functional
72 kDa type IV collagenase, sequence (P08253 whole entry): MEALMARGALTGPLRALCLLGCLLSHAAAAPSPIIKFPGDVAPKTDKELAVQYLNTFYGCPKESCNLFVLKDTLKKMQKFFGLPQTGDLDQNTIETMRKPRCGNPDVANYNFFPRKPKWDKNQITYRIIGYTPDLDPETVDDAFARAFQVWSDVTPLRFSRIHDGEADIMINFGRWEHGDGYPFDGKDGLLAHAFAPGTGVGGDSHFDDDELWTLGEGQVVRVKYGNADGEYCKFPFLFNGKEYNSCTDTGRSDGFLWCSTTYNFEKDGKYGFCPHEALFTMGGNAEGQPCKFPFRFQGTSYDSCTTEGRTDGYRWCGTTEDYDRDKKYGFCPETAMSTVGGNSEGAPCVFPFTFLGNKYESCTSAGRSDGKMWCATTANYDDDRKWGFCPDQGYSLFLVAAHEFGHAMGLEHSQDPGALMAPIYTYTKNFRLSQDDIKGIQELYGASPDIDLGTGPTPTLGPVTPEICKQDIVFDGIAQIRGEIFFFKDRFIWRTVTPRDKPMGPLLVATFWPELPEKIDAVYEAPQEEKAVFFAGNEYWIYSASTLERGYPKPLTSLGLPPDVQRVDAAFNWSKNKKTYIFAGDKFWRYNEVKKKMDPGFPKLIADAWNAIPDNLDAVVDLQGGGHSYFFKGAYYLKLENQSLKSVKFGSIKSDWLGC

Prothrombin = Prothrombin (Bos taurus, UniProt P00735); experiment: thrombin protease inhibitors – biochemical, fluorescence polarization, uHTS hits, dose response (AID 602369); assay type: functional
Vero [6] = experiment: cells; assay type: functional, cell-based; settings: Chlorocebus sabaeus
Vero [7] = experiment: cells; assay type: functional; settings: Chlorocebus sabaeus
[8] = target: T1, Methionyl-tRNA synthetase, putative (Trypanosoma brucei brucei, UniProt Q38C91); assay type: functional, Trypanosoma brucei brucei strain 927/4 GUTat10.1
T1 sequence (Q38C91 whole entry): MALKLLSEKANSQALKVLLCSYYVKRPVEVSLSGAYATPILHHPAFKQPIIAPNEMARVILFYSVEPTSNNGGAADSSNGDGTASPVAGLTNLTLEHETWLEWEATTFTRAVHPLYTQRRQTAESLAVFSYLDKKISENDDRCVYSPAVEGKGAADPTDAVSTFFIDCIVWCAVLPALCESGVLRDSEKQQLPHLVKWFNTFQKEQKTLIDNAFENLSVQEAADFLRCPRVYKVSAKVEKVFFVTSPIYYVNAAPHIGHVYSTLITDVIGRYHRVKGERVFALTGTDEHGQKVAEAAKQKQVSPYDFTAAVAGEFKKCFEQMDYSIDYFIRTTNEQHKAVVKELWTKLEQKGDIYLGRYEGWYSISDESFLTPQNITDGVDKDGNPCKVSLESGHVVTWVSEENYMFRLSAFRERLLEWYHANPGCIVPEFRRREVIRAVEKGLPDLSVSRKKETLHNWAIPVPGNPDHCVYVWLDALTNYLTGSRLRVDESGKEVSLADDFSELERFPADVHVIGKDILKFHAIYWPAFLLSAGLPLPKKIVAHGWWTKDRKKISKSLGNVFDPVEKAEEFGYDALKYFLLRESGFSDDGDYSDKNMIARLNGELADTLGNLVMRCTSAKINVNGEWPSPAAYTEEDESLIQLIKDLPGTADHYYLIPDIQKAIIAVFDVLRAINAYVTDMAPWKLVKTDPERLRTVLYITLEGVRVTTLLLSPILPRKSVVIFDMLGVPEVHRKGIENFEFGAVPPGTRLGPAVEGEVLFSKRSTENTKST

[9] = Counterscreen for inhibitors of Trypanosoma brucei methionyl tRNA synthetase (MetRS): Luminescence-based cell-based high throughput dose response assay to identify compounds that are cytotoxic to Jurkat human T lymphocyte cells.; assay type: functional
[10] = target: T1, Methionyl-tRNA synthetase, putative; assay type: functional, Trypanosoma brucei brucei strain 927/4 GUTat10.1; remark: listed apart in the source
Albumin = Albumin (Bos taurus, UniProt P02769); experiment: Counterscreen for inhibitors of T-cell receptor (TCR)-CD3 interaction: Fluorescence-based biochemical high throughput dose response assay to identify inhibitors of T-cell receptor (TCR)-CD3 interaction using a TAMRA-labeled BSA probe.; assay type: functional
Albumin, sequence (P02769 whole entry): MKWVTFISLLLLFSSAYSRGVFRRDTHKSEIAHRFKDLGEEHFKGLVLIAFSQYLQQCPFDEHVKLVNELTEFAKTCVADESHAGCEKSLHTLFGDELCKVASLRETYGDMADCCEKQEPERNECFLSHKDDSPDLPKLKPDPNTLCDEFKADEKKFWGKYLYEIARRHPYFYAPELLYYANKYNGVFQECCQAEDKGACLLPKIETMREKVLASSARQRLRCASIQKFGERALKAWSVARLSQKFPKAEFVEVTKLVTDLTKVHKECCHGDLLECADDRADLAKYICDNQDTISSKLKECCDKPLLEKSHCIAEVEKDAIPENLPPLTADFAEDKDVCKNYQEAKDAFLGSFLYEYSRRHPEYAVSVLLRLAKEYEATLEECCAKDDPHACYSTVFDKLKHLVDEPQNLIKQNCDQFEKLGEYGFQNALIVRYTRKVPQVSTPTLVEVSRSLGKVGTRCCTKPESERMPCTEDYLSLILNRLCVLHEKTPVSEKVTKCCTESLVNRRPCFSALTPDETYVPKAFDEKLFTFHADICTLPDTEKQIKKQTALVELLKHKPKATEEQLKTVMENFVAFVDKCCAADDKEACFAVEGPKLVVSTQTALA

HEK293 = experiment: EBV LMP1 TES2 canonical NF-kB signalling blockers – cell-based, HEK293, luciferase, cherry-pick, dose response (AID 588343); assay type: functional; settings: Homo sapiens
cells = assay type: functional, cell-based
[11] = target: Nuclear receptor subfamily 0 group B member 1 (Homo sapiens, UniProt P51843); assay type: functional, cell-based;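 further: HEK293T cells transfected with SF-1 and DAX-1 plus StAR promoter luciferase reporter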
Nuclear receptor subfamily 0 group B member 1, sequence (P51843 whole entry): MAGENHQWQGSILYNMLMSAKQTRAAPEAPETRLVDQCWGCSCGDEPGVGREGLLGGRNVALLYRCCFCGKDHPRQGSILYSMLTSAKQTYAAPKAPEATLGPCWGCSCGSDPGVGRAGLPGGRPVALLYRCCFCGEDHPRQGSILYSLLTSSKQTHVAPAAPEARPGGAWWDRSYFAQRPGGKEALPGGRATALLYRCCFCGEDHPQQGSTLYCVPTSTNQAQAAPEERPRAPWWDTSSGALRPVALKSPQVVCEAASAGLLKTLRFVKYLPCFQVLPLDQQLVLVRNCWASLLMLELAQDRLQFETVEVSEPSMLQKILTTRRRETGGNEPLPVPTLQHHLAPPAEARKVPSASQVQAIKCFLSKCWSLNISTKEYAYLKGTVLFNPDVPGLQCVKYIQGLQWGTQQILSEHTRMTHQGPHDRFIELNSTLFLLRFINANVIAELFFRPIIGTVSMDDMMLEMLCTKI

[12] = A549 cell cytotoxicity, dose response, cytotoxicity control, plate reader, cherry-pick, antagonist series (AID 743412); assay type: functional, cell-based
[13] = blockers of bursicon-stimulated LGR2 cAMP reporter – cell-based, HEK293, CRE-luciferase reporter, cherry pick, set 2, dose response (AID 743343); assay type: functional;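 further: transfected cells were stimulated with diluted bursicon conditioned medium after compound addition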
[14] = blockade of melanocortin 4 receptor signaling – cell-based, plate reader, cherry pick, counter-screen for LGR2 antagonist project, dose response (AID 743444); assay type: functional;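 further: transfected HEK 293 cells stimulated with alpha-MSH peptide; potency of inhibitors of the alpha-MSH evoked signal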
[15] = viability loss in HEK293 cells – cell-based, plate reader, cherry-picked samples, cytotoxicity control, dose response (AID 743446); assay type: functional
[16] = Luminescent dose response cell-based high throughput screening assay for inhibitors of the Janus kinase 2 mutant JAK2V617F. [Related pubchem assays: 1446 (Primary screen.), 1521 (Confirmation assay.), 1486 (Counter screen.)]; assay type: functional
[17] = target: T2, Microphthalmia-associated transcription factor (Homo sapiens, UniProt O75030); experiment: reducers of TRPM1 reporter luminescence, concentration series – cell-based, SK-MEL-5, cherry-picked, set 3, MITF inhibitor project, dose response (AID 493073); assay type: functional;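 further: SK-MEL-5 melanoma cells with luciferase driven by the MITF target TRPM1 promoter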
T2 sequence (O75030 whole entry): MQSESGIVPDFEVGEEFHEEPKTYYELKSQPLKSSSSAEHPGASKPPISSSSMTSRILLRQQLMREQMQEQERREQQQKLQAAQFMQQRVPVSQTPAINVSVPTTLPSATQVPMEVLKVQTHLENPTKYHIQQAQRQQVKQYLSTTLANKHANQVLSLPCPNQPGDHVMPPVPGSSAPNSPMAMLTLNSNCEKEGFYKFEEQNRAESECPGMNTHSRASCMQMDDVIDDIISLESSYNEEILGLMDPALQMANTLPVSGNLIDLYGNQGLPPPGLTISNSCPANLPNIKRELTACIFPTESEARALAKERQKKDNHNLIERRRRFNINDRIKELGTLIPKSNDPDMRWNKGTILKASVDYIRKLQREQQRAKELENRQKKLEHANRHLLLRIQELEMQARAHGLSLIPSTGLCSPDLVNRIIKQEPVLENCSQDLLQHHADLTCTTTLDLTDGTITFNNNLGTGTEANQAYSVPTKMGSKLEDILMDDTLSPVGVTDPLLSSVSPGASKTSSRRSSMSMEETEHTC

INS1 = experiment: INS-1E survival protection against cytokine death – cell-based, luminescence, retest, dose response (AID 449756); assay type: functional; settings: Rattus norvegicus;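 further: cell death triggered by IL-1 beta plus TNF-alpha plus IFN-gamma mixture; protective hits raise ATP signal compared with cytokine alone wells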
A-375 = experiment: proliferation inhibition in MITF-low A375 cells – cell-based, cherry-pick samples, set 2, counter-screen for MITF modulator project, dose response (AID 540335); assay type: functional; settings: Homo sapiens

Melanin-concentrating hormone receptor 1, sequence (Q99705 whole entry): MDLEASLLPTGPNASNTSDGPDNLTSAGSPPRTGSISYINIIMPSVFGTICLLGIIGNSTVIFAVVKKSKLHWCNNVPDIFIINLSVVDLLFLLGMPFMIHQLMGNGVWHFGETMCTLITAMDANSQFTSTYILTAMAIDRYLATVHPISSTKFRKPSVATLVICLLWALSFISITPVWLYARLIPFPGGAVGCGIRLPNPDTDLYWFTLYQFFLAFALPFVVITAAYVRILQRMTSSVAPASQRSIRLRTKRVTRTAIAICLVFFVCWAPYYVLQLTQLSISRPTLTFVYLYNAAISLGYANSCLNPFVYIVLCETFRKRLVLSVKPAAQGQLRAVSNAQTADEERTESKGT

In the case of `COC(=O)c1nn(-c2ccc(C(C)C)cc2)c(=O)c(Oc2ccc(OC)cc2)c1Cl`, the IC50 [1] is reported as 3.57 µM (active).

In the case of `CSc1nc2c(=S)n(C)c(=O)n(C)c2[nH]1`, the EC50 [2] is reported as > 91.2 µM (inactive) and the EC50 [3] is reported as > 91.2 µM (inactive).

In the case of `CCOC(=O)CSc1nc2ccccc2n1C(=O)OCC`, the IC50 [4] is reported as 21.1 µM (active), the IC50 [5] is reported as > 100 µM (inactive) and the IC50 (Prothrombin) is reported as 28.1 µM (active).

In the case of `Cc1ccc(S(=O)(=O)n2cccc2/C=C/[N+](=O)[O-])cc1`, the IC50 (Vero [6]) is reported as > 25 µM (active) and the CC50 (Vero [7]) is reported as 9.49 µM (active).

With `C=CCNC(=S)NNC(=O)c1ccc(=O)n(Cc2ccc(Cl)cc2Cl)c1` the IC50 [8] was 281 µM (inactive), the IC50 [9] was 83.3 µM (inactive) and the IC50 [10] was 13.4 µM (inactive).

In the case of `CC(C)C(=O)Nc1ccc(C(=O)NNC(=S)NC(=O)c2ccco2)cc1`, the IC50 (Albumin) is reported as > 94.1 µM (inactive).

With `COC(=O)c1ccc2nc(-c3ccc4c(c3)OCO4)cn2c1` the AC50 (HEK293) was 1.57 µM (active), the IC50 (cells) was > 67.5 µM (inactive) and the IC50 [11] was > 0.0925 µM (active). The AC50 [12] was > 52 µM (inactive), the AC50 [13] was 2.13 µM (active) and the AC50 [14] was 2.22 µM (active). For the same molecule, the AC50 [15] was > 52 µM (inactive).

In the case of `C=CCN1C(=O)/C(=C/c2ccc(Br)s2)C(=O)NC1=S`, the CC50 (Vero [7]) is reported as 24.2 µM (active).

For `CCCCn1c(=N)n(CC(=O)c2ccc(Br)s2)c2ccccc21`, the IC50 [16] was 1.42 µM (active), the AC50 [17] was 7.45 µM (active) and the AC50 (INS1) was 7.71 µM (active). The AC50 (A-375) was 30.3 µM (active).
